According to patent US20220362262A1, “METHODS AND COMPOSITIONS FOR TISSUE REGENERATION” (Institute of Zoology, Chinese Academy of Sciences, priority 2019, published 2022):
Entries after “also recorded” stand apart in the source; their conditions may differ. Where two headings read alike, the source gives them in different places.

Tests used:
[1] = system: PPARA; conditions: agonist of PPARA; cited from earlier work
[2] = system: muscle stem cells and myoblasts in gastrocnemius, quadriceps and TA muscle; test: Stem cell and myoblast activation in skeletal muscles without injury, immunofluorescence 2 days after single bolus; type: in vivo, mice; conditions: gastrocnemius muscle, 2 days after intraperitoneal single bolus, with or without fenofibrate or WY-14643
Text: (§1) Some tissues were flash frozen for cryosectioning.

[3] = system: PPARG; conditions: agonist of PPARG; cited from earlier work
[4] = system: human myocytes; test: Seahorse O2 consumption rates in differentiating myocytes; type: cell-based; conditions: etomoxir at early 0-12 h and 12-24 h time-windows only
Procedure: HSKM progenitors were seeded onto Seahorse XF96 Cell Culture Microplate (Agilent), pre-coated with gelatin (0.1%, Merck-Millipore), in growth media at 10,000 cells per well. […] Before performing the Seahorse XF cell Mito Stress Test assay, cell culture media were replaced with assay media (Seahorse XF DMEM Medium, pH 7.4, 2 mM pyruvate, 2 mM glutamine) (Agilent) and incubated in a CO2-free incubator at 37° C. for 1 hour to equilibrate temperature and pH for each well. During the assay, Oligomycin (2 uM, Agilent), FCCP (0.5 uM, Agilent), and a mixture of Antimycin A and Rotenone (0.5 uM, Agilent), were injected sequentially and measurements were taken according to manufacturer's instructions. The data was analyzed using WAVE software.

[5] = system: primary human myoblasts / myocytes; test: Etomoxir (CPT1 inhibitor) at different time-windows of myoblast differentiation: cell numbers, Western blot; type: cell-based
[6] = system: primary human myoblasts / myocytes
Procedure: Primary human skeletal muscle (HSKM) progenitors (Gibco) were cultured on gelatin solution (0.1%, Merck-Millipore)-coated plate and incubated in a humidified atmosphere (5% CO2 and 37° C.) with growth medium composed of DMEM/F-12 (Gibco) supplemented with fetal bovine serum (FBS) (20%, GE Healthcare), L-glutamine (1%, Gibco) and penicillin-streptomycin (1%, Gibco). Confluent HSKM progenitors were induced to differentiate by replacing growth media with differentiation medium, comprising of DMEM/F-12, KnockOut Serum Replacement (2%, Gibco), L-glutamine (1%, Gibco) and penicillin-streptomycin (1%, Gibco).
RNA was extracted using TRIzol (Thermo Fisher) and reverse transcribed to cDNA with Superscript III (Thermo Fisher) according to manufacturer's instructions. The synthesized cDNA was diluted 5× in H2O before performing qPCR with KAPA SYBR FAST (Merck) on ABI Prism 7900HT (Applied Biosystems) real-time PCR system according to manufacturers' instructions.
Cells were washed with PBS (Thermo Fisher) and fixed with paraformaldehyde (PFA) (4%, Electron Microscopy Sciences) at room temperature for 10 mins. Cells were stained with primary antibody myosin heavy chain eFluor 660 (1:20, 50-6503-82, Thermo Fisher) at 4 C overnight. DAPI (Merck) was used as a nuclear counterstain according to manufacturer's recommendations. Stained cells were imaged with a Zeiss fluorescence microscope.

[7] = system: cryoinjured TA muscle; test: Muscle regeneration after cryoinjury: regenerative index, myogenic proteins, myofiber diameter, grip strength after bolus injection; type: in vivo, mice
Text: as §1

[8] = system: cryoinjured TA muscle of aged and sarcopenic 2-year-old mice
Procedure: Liquid chromatography-tandem mass spectrometry (LC-MS/MS) metabolomics and lipidomics analyses were performed according to previously published protocols (Chong et al., 2012).
Eight week old NOD scid gamma (NSG) or C57BL/6 mice were anaesthetized with a mixture of ketamine and xylazine (120 mg/kg and 8 mg/kg respectively) via intraperitoneal injection. After successful anesthetization, the skin over the tibialis anterior (TA) or gastrocnemius or quadriceps muscle was disinfected by wiping with 70% ethanol and a 3 mm incision was made over the TA muscle. A dry-ice-chilled 4-mm metal probe was directly applied onto the exposed skeletal muscle for three cycles of five seconds to induce cryo-injury. Thereafter, the incision was immediately sutured using a surgical suture stapler. Upon recovery under heat lamps for a period of 2 hours, the mice were randomly allocated to each treatment groups. […] Samples were serially sectioned until depleted and haemotoxylin and eosin (H&E) staining was performed on every 12th 5 um-thick tissue section. After microscopy imaging, the area of the cryo-injured myofibers was quantified using ImageJ.
Tibialis anterior (TA) tissue samples embedded in paraffin were sectioned using a microtome and transferred onto Leica Microsystems Plus Slides. Some tissues were flash frozen for cryosectioning. Paraffin-embedded sections were deparaffinized in xylene (Merck) for 2 washes (10 mins) and then transferred sequentially into 100% EtOH (Merck), 100% EtOH, 95% EtOH and 70% EtOH (2 mins) at room temperature. The sections were then rehydrated in deionized water (3 mins). Antigen retrieval was carried out using the 2100 Retriever in sodium citrate buffer (Merck, pH 6.2, 30 mins). Slides were then cooled in cold PBS (15 mins) and blocked in blocking buffer at room temperature (30 mins). Primary antibody staining was conducted in blocking buffer at 4° C. overnight with the following antibodies, GFP (1:500, sc-9996, Santa Cruz), Pax7 (5 ug/ml, 042349, DSHB), MyoD (5 ug/ml, sc-377460, Santa Cruz), Ki67 (1:100, 14-5698-82, Thermo Fisher), embryonic MHC (Myh3; 1:100, sc-53091, Santa Cruz), PDGFRa (5 ug/mL, AF1062, R&D), F4/80 (1:100, ab6640, Abcam), PPARG (1:1000, 2443S, CST), and myosin heavy chain eFluor 660 (1:20, 50-6503-82, eBioscience). After the slides were washed thrice in PBS (10 mins) and counterstained with DAPI, secondary antibody staining for GFP was conducted in blocking buffer at room temperature (1 hr) with goat anti-mouse IgG secondary antibody, Alexa Fluor 488 (1:500, A11001, Thermo Fisher).

[9] = system: pure primary human myoblasts; test: Pure primary human myoblasts treated with PGI2-related drugs (Western blot, qRT-PCR); type: cell-based; conditions: pure primary human myoblasts, relative to DMSO
[10] = system: fibrosis in TA muscle, liver, skin and heart of 2-year old mice; test: Aging-induced fibrosis and fibrotic precursors in 2-year old mice after daily injection; type: in vivo; conditions: for relative changes in the % fibrotic area (Masson trichrome staining) / relative changes in the percentage fraction of fibrotic precursors (PGDFRA-positive and Ki67-positive): 7 days post-injection, 2-year old mice
Text: as §1

[11] = system: cryoinjured tibialis anterior (TA) muscle
Procedure: Eight week old NOD scid gamma (NSG) or C57BL/6 mice were anaesthetized with a mixture of ketamine and xylazine (120 mg/kg and 8 mg/kg respectively) via intraperitoneal injection. After successful anesthetization, the skin over the tibialis anterior (TA) or gastrocnemius or quadriceps muscle was disinfected by wiping with 70% ethanol and a 3 mm incision was made over the TA muscle. A dry-ice-chilled 4-mm metal probe was directly applied onto the exposed skeletal muscle for three cycles of five seconds to induce cryo-injury. Thereafter, the incision was immediately sutured using a surgical suture stapler. Upon recovery under heat lamps for a period of 2 hours, the mice were randomly allocated to each treatment groups. […] Samples were serially sectioned until depleted and haemotoxylin and eosin (H&E) staining was performed on every 12th 5 um-thick tissue section. After microscopy imaging, the area of the cryo-injured myofibers was quantified using ImageJ. For western blot samples, TA muscles were snap-frozen in liquid nitrogen and homogenized in RIPA buffer (Thermo Fisher) supplemented with protease inhibitor cocktails I and II (Merck) and phosphatase inhibitor cocktail set III (Merck) using TissueLyser II (Qiagen).

[12] = system: GFP+ human myocytes engrafted into cryoinjured TA muscle; conditions: myoblasts pre-treated 0-24 h, injected 24 h after cryoinjury
Text: as §1

[13] = 2-year old mice, injected at 0 h after injury, 27 days post-injury

In the case of `Cc1cccc(Nc2cc(Cl)nc(SCC(=O)O)n2)c1C` [WY-14643, pirinixic acid], the EC50 [1] is listed as 0.63 µM, the “percentage fraction of myoblasts (MyoD-positive cells)” value [2] is listed as “significantly increased” and the “percentage fraction of proliferative myoblasts (MyoD-positive Ki67-positive cells)” value [2] is listed as “significantly increased”. For the same compound, the EC50 [3] was 32 µM.

In the case of `CCOC(=O)[C@@]1(CCCCCCOc2ccc(Cl)cc2)CO1` [etomoxir], the O2 consumption rates [4] is reported as “decrease O2 consumption rates”, the “MHC and MYOG protein phenotype (Western blot)” value (“MHC and MYOG protein phenotype” for short) ([5]; 0-24 h mitochondrial FAO inhibition) is reported as “MHC^low; MYOG^low” and the “MHC and MYOG protein phenotype” value ([5]; 24 h-48 h mitochondrial FAO inhibition) is reported as “MHC^low; MYOG^high”. For the same compound, the “MHC and MYOG protein phenotype” value ([5]; 48 h-72 h mitochondrial FAO inhibition) was “MHC^high; MYOG^low”, the “MHC and MYOG protein phenotype” value ([5]; 72 h-96 h mitochondrial FAO inhibition) was “MHC^high; MYOG^high” and the “myocyte survival (relative cell numbers)” value ([5]; treatment at 0-24 h and 24-48 h of myoblast differentiation) was “severely compromised myocyte survival”.

For `CN(CCOc1ccc(CC2SC(=O)NC2=O)cc1)c1ccccn1` (centres unmarked) [rosiglitazone], the “myogenesis (MHC protein and α-actinin immunostaining)” value ([6]; 0-24 h and 24-48 h time-windows, low density) was “significantly enhanced myogenesis”, the “myotube/myofiber maturity and hypertrophy (immunofluorescence)” value ([6]; 0-24 h time-window, high density) was “more mature and hypertrophic human myotubes; also recorded: significantly more mature and hypertrophic; also recorded: induces myofibers with wider diameter and higher expression of MHC and α-actinin” and the “mRNA levels of myogenin (MYOG), adult type I myosin heavy chain (MYH7) and perinatal myosin heavy chain (MYH8)” value ([6]; 0-24 h time-window, low density, at the end of 96 h) was “uniquely upregulated”. The “myocyte/myotube size and MHC, α-actinin expression (immunofluorescence)” value ([6]; different time-windows, low density conditions) was “induces larger myocytes and myotubes with higher expression levels of MHC and α-actinin”, the “mRNA levels of MYOG, MYH7 and MYH8” value ([6]; other time-windows of treatment, low density, at the end of 96 h) was “no significant effects” and the “myogenesis (MHC protein and α-actinin immunostaining)” value ([6]; other time-windows, low density) was “suppressed myogenesis”. For the same compound, the grip strength ([7]; 14 days post-injury, 6-week old mice, prostaglandin at 0 h, rosiglitazone at 24 h post-injury) was “partially restore grip strength”, the “hypertrophic growth (myofiber cross-sectional Feret diameters)” value ([7]; TA muscle 6.5 days post-injury, prostaglandin at day 0, rosiglitazone at day 1) was “increase hypertrophic growth” and the “regenerative index (fraction of nuclei in embryonic MHC-positive myofibers)” value ([7]; TA muscle 6.5 days post-injury, single bolus, combinations: prostaglandin at day 0, rosiglitazone at day 1, relative to DMSO vehicle) was “significantly increase muscle regeneration”. For the same compound, the “regenerative index (fraction of nuclei in embryonic MHC-positive myofibers)” value ([8]; 2-year old mice, injected at 0 h after injury, 6 days post-injury) was “can restore aged muscle regeneration; also recorded: significantly improved”, the “fibrotic area in the TA muscle (Masson trichrome)” value [8, 13] was “can reverse the aged muscle fibrosis; also recorded: significantly reduced fibrosis” and the grip strength [8, 13] was “can partially restore grip strength”. For the same compound, the “regenerative index (fraction of nuclei in embryonic MHC-positive myofibers)” value ([8]; 2-year old mice, injected at 24 h and 48 h time-points) was “did not show as strong an improvement”, the “body weight or aging-induced obesity” value ([8]; 2-year-old mice, 27 days after single intramuscular bolus) was “no significant changes; also recorded: insufficient to affect total body weight and obesity” and the “FAO intermediates (acyl-carnitines) / FAO flux in TA muscle, LC-MS/MS” value ([8]; 2-year-old mice, bolus at 0 h post-injury, day 6) was “led to an induction; also recorded: transiently increase FAO flux”. The “H3K9ac and MyoD protein (Western blot)” value [9] was “followed the same pattern of regulation as PPARG”, the “PPARG protein levels (Western blot)” value [9] was “stabilize and/or upregulate” and the “relative changes in the % fibrotic area (Masson trichrome staining)” value (“relative changes in the % fibrotic area” for short) ([10]; TA muscle, daily injection) was “partially reverse the aged muscle fibrosis; also recorded: significant reversal of aging-induced fibrosis”. The “relative changes in the percentage fraction of fibrotic precursors (PGDFRA-positive and Ki67-positive)” value ([10]; TA muscle, daily injection) was “partially suppress the aged muscle fibrotic precursors”, the “relative changes in the % fibrotic area” value ([10]; heart tissue, daily injection) was “partially reverse the aged cardiac fibrosis” and the “relative changes in the percentage fraction of fibrotic precursors (PGDFRA-positive and Ki67-positive)” value ([10]; heart tissue, daily injection) was “partially suppress the aged cardiac fibrotic precursors”. The “relative changes in the % fibrotic area” value ([10]; liver tissue, daily injection) was “partially reverse the aged liver fibrosis”, the “relative changes in the percentage fraction of fibrotic precursors (PGDFRA-positive and Ki67-positive)” value ([10]; liver tissue, daily injection) was “partially suppress the aged liver fibrotic precursors” and the “PDGFRA+ Ki67+ fibrotic precursor numbers in multiple non-skeletal muscle tissues” value ([10]; liver, skin and heart, 2-year-old mice) was “suppress”. The “aging-induced fibrosis (fibrotic area) in multiple non-skeletal muscle tissues” value ([10]; liver, skin and heart, daily injection, 2-year-old mice) was “significant reversal of aging-induced fibrosis”, the “relative changes in the % fibrotic area” value ([10]; skin tissue, daily injection) was “partially reverse the aged skin fibrosis” and the “relative changes in the percentage fraction of fibrotic precursors (PGDFRA-positive and Ki67-positive)” value ([10]; skin tissue, daily injection) was “partially suppress the aged skin fibrotic precursors”. For the same compound, the “MHC protein isoforms and α-actinin protein levels (Western blot)” value ([11]; injection at 24 h and 48 h, relative to control and 0 h) was “stronger expression”, the “skeletal muscle regeneration (remaining necrotic area)” value ([11]; injection at 24 h and 48 h after injury, 4 days post-injury) was “improved skeletal muscle regeneration” and the “MyoD and MyoG protein expression (Western blot)” value ([11]; intramuscular injection at 24 h post-cryoinjury, TA 4 days post-injury) was “elicited the strongest expression”. For the same compound, the “MHC protein expression among the engrafting human myocytes” value [12] was “significantly enhanced”.
